According to patent US20050112573A1, “Method of detecting toxic substance” (priority 2001, published 2005):

Test system: yeast genes (level of expressed mRNA)
Experiment: DNA chip analysis of expressed mRNA of yeast genes after 2 h culture with a toxic chemical substance
Format: cell-based, Saccharomyces cerevisiae S288C
Procedure: Yeast (Saccharomyces cerevtisiae S288C (α SUC2mal mel gap2 CUP1)) were cultured at 25° C. on YPD medium (yeast extract 1%, polypepton 2%, glucose 2%). One of toxic chemical substances was added to the cell at logarithmic growth phase, and the cell was further cultured for two hours. Cell was cultured without any chemical substance in the same condition, and was used as control. Concentrations of the chemical substances were defined to inhibit the growth of the yeast but not lead to death.
After the completion of cultivation, the culture was centrifuged to collect the cells. To the cells, sodium acetate buffer (50 mM sodium acetate, 10 mM EDTA, 1% SDS) was added, and the mixture was shaken at 65° C. for five minutes, followed by returning to room temperature, and obtaining the supernatant, which procedure was repeated two times. To the supernatant, ½ amount of a solution of phenol/chloroform was added, and the mixture was centrifuged to give a supernatant, which was added with an equal amount of chloroform, and the mixture was centrifuged to give a supernatant. To the supernatant, an equal amount of isopropanol containing 0.3 M sodium acetate was added, and the mixture was allowed to stand at room temperature for 30 minutes, after which the mixture was centrifuged to give a sediment of the whole RNAs. Seventy % ethanol was added to the sediment, and the mixture was again centrifuged to give a sediment, which was then dried and dissolved in water. mRNA was isolated from the whole RNAs as followings. In view of the fact that a poly A chain is attached to the 3′ terminus of mRNA, a polynucleotide having a poly T structure which was immobilized on the surface of latex beads was used to trap the mRNA, and then the mRNA was washed and eluted with spine column (Oligotex-dT30<Super>mRNA Purification Kit, Takara). Reverse transcription of the mRNA was conducted with a reverse transcriptase (Super Script II Reverse Transcriptase; catalogue No. 18064-014, GibcoBRL) using fluorescence-labeled nucleotides to give cDNAs that were introduced with Cy3-dUTP or Cy5-dUTP during the reverse transcription.
The labeled cDNAs were dissolved in TE buffer (10 mM Tris-HCl/1 mM EDTA, pH8.0), and the solution was dropped on the DNA chip containing the whole genes of yeast (DNA Chip Research Inc. Japan) so that the cDNAs were hybridized on the DNA chip at 65° C. for over 12 hours. The fluoresces intensity of the DNA chip was read with a scanner, and the ratio relative to the fluorescence intensity resulting from the absence of chemical substance was estimated as the following, which is shown in Tables 1 to 9: [formula]
In the Tables, “Intensity” indicated in the rightmost column is a value of the level of expressed mRNA of each gene in control cells as divided by the average level of the expressions of the whole genes.

Measured: The level of expressed mRNA in the presence of chemical substance/The level of expressed mRNA in the absence of chemical substance

O=[N+]([O-])c1cc[n+]([O-])c2ccccc12 [(5), 4-nitroquinolin-N-oxide]
0.5: yeast gene YCL020W
1.2: yeast gene YCL027W | yeast gene YCR004C | yeast gene YCR071C | yeast gene YDR084C | yeast gene YFL043C | yeast gene YGR136W | yeast gene YGR213C | yeast gene YJL073W | yeast gene YLR391W | yeast gene YNL007C | yeast gene YNL093W | yeast gene YOR117W | yeast gene YOR185C | yeast gene YPL109C | yeast gene YPL154C
0.7: yeast gene YBL078C | yeast gene YDR388W | yeast gene YDR510W | yeast gene YEL042W | yeast gene YGR189C | yeast gene YKL039W | yeast gene YMR104C | yeast gene YMR275C | yeast gene YOL013C | yeast gene YOR157C | yeast gene YOR181W
1.3: yeast gene YBL005W-A | yeast gene YDR104C | yeast gene YER107C | yeast gene YGR257C | yeast gene YHR139C | yeast gene YHR142W | yeast gene YJL116C | yeast gene YJR086W | yeast gene YKL041W | yeast gene YLR327C | yeast gene YMR276W | yeast gene YPR108W
1.0: yeast gene YAR010C | yeast gene YDR259C | yeast gene YDR481C | yeast gene YGL158W | yeast gene YGL229C | yeast gene YLR178C | yeast gene YMR004W | yeast gene YOR355W
0.6: yeast gene YIL123W | yeast gene YKL096W
1.9: yeast gene YKL013C
0.8: yeast gene YEL066W | yeast gene YIL140W | yeast gene YOR198C | yeast gene YPL149W
2.0: yeast gene YOR259C
1.7: yeast gene YDR055W | yeast gene YER130C | yeast gene YFL028C | yeast gene YPR103W
1.6: yeast gene YBL041W | yeast gene YDR432W | yeast gene YLR136C | yeast gene YMR219W | yeast gene YOL164W
1.8: yeast gene YDL008W | yeast gene YNR010W
2.8: yeast gene YKL139W
0.9: yeast gene YDL238C | yeast gene YDR085C | yeast gene YDR315C | yeast gene YKL008C | yeast gene YKL165C | yeast gene YMR094W | yeast gene YMR226C | yeast gene YNL006W | yeast gene YOR383C
1.5: yeast gene YER039C | yeast gene YHR004C | yeast gene YHR071W | yeast gene YLR362W | yeast gene YNL333W | yeast gene YOR261C
1.4: yeast gene YDR115W | yeast gene YDR358W | yeast gene YLR250W | yeast gene YLR429W | yeast gene YNR069C | yeast gene YPL089C
1.1: yeast gene YBL043W | yeast gene YBR214W | yeast gene YCR088W | yeast gene YJL089W | yeast gene YJR004C | yeast gene YKL193C | yeast gene YLR120C | yeast gene YLR356W | yeast gene YOR036W | yeast gene YOR124C | yeast gene YOR132W | yeast gene YOR288C
